Like-named read-outs stand apart in the source and are kept apart here.
What was measured:
[1] = tested on: Polaromonas sp.-derived PobA (PoPobA), protocatechuic acid 5-hydroxylase, wild type, SEQ ID NO: 22; assay: Reaction kinetic analysis of PoPobA; format: biochemical; details: 200 µM NADPH, 10 µM FAD, pH 7.9, 25° C., 340 nm
Source text: By the same procedures, a target pRSF-PoPobA plasmid was obtained based on the gene sequence information of Polaromonas sp.-derived PobA (PoPobA) (SEQ ID NO: 7). The base sequences of primers 5 and 6 used are shown below.

[2] = target: Hylemonella gracilis-derived PobA (HgPobA, SEQ ID NO: 20) variant HgPobA-TY, T302A/Y393F (gene SEQ ID NO: 37) (Hylemonella gracilis, UniProt F3KT36, T302A/Y393F); assay: Reaction kinetic analysis of HgPobA-TY
Protocol: The cell-free extracts were subjected to a HisTrap HP column (GE healthcare) which was equilibrated with an equilibration buffer (20 mM Tris-HCl buffer (pH 7.9), 20 mM imidazole), and then fractions eluted with an eluent (20 mM Tris-HCl buffer (pH 7.9), 500 mM imidazole) were collected.
The protein concentrations of the purified enzyme liquids were measured using Bio-Rad Protein Assay Dye Reagent Concentrate (Bio-Rad, USA), and the purified enzyme liquids were diluted to 1 of mg/mL with a buffer.

[3] = target: Pseudomonas aeruginosa-derived PobA (PaPobA), p-hydroxybenzoate hydroxylase, wild type, SEQ ID NO: 28 (Pseudomonas aeruginosa, UniProt P20586); assay: Reaction kinetic analysis of PaPobA (comparison); details: PCA substrate (2 mM), 200 µM NADPH, 10 µM FAD, pH 7.9, 25° C., 340 nm
Source text: A polynucleotide encoding Pseudomonas aeruginosa-derived PobA was artificially synthesized based on the gene sequence information of Pseudomonas aeruginosa-derived PobA (PaPobA) (SEQ ID NO: 14).

[4] = tested on: Hydrogenophaga sp.-derived PobA (HyPobA), protocatechuic acid 5-hydroxylase, wild type, SEQ ID NO: 21; assay: Reaction kinetic analysis of HyPobA; format: biochemical; details: 200 µM NADPH, 10 µM FAD, pH 7.9, 25° C., 340 nm
Source text: By the same procedures, a target […] plasmid was obtained based on the gene sequence information of Hydrogenophaga sp.-derived PobA (HyPobA) (SEQ ID NO: 4). The base sequences of primers 3 and 4 used are shown below.

[5] = PCA substrate, read-out: Km^app (PCA)
[6] = read-out: Km^app (pHBA), pHBA substrate

Chain of Hylemonella gracilis-derived PobA (HgPobA, SEQ ID NO: 20) variant HgPobA-TY, T302A/Y393F (gene SEQ ID NO: 37) (F3KT36 1-402 T302A/Y393F): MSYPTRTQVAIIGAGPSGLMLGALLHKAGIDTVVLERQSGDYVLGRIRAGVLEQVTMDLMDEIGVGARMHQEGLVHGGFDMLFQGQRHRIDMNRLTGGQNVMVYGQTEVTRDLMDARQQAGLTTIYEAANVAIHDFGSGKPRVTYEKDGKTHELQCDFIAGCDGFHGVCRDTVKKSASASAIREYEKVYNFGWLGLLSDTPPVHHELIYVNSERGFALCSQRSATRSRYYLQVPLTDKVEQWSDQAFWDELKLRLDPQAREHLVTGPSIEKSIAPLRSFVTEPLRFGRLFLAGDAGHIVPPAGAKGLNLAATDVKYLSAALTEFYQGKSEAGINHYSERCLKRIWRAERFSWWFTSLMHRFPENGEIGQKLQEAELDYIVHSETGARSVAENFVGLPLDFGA
Chain of Pseudomonas aeruginosa-derived PobA (PaPobA), p-hydroxybenzoate hydroxylase, wild type, SEQ ID NO: 28 (P20586 whole entry): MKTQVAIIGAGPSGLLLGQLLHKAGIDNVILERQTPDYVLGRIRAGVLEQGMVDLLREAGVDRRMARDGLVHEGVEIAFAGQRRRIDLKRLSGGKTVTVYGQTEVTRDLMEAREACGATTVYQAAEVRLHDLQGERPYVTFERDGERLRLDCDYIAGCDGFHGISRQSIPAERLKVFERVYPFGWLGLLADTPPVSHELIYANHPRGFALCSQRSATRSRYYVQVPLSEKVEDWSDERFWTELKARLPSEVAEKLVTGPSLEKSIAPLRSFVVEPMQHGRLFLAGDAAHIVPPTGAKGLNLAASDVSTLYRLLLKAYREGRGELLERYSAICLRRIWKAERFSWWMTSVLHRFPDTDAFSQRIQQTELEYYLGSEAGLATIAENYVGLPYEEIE

SMILES: O=C(O)c1ccc(O)c(O)c1 [PCA, protocatechuic acid]
- kcat^app (PCA) ([1]; PCA substrate (2 mM)): 2.7 s⁻¹
- Km [1, 5]: 920 µM
- kcat value for PCA relative to PaPobA ([2]; HgPobA-TY versus PaPobA): 3.6 times
- kcat^app (PCA) ([2]; PCA substrate (2 mM), 200 µM NADPH, 10 µM FAD, pH 7.9, 25° C., 340 nm): 1.8 s⁻¹
- kcat^app (PCA) [3]: 0.50 s⁻¹
- kcat^app (PCA) ([4]; PCA substrate (2 mM)): 6.6 s⁻¹
- Km [4, 5]: 570 µM

SMILES: O=C(O)c1ccc(O)cc1 [pHBA, p-hydroxybenzoic acid]
- Km [1, 6]: 340 µM
- Km [4, 6]: 56 µM
